Measured values from patent US5202437A, “3-pyrrolidinylthio-1-azabicyclo(3.2.0)-hept-2-ene-2-carboxylic acid compounds” (Fujisawa Pharmaceutical Company, Ltd., priority 1988, dated 1993).
In brackets after ≈: the same amount, converted by molar mass.

Tested on: P. aeruginosa 26
Test: in vitro Antimicrobial Activity (two-fold agar-plate dilution method)
Type: cell-based
Conditions: Pseudomonas aeruginosa, heart infusion agar, 10^6 viable cells per ml, 37° C. for 20 hours, read-out: minimal inhibitory concentration (MIC)
Protocol: in vitro Antimicrobial Activity was determined by the two-fold agar-plate dilution method as described blow.
One loopful of an overnight culture of a test strain in Trypticase-soy broth (10^6 viable cells per ml) was streaked on heart infusion agar (HI-agar) containing graded concentrations of the test compound, and the minimal inhibitory concentration (MIC) was expressed in terms of μg/ml after incubation at 37° C. for 20 hours.
The compound of Example 2.

C[C@@H](O)[C@H]1C(=O)N2C(C(=O)O)=C(S[C@@H]3CN[C@H](CN4CCNCC4)C3)[C@H](C)[C@H]12 [Example 2, (4R,5S,6S)-6-[(1R)-1-hydroxyethyl]-4-methyl-7-oxo-3-[(2S,4S)-2-(piperazin-1-yl)methylpyrrolidin-4-yl]thio-1-azabicyclo[3.2.0]hept-2-ene-2-carboxylic acid]
MIC: 0.39 µg/mL (≈ 0.95 µM)
